Measurements taken from the kinase profiling compilation of Christmann-Franck et al. (2016).

How the values were obtained:
Test in all cases: radiometric filter-binding kinase assay
[1] = target: FGFR1 (human) (UniProt P11362)
[2] = target: STK11 CAB39 STRADA (human) (UniProt Q9Y376+Q7RTN6+Q15831)
[3] = target: INSR (human) (UniProt P06213)
[4] = target: NEK6 (human) (UniProt Q9HC98)
[5] = target: TTK (human) (UniProt P33981)
[6] = target: MARK2 (human) (UniProt Q7KZI7); conditions: compound 0.1 µM
[7] = target: MAP2K6 (human) (UniProt P52564); conditions: compound 0.1 µM
[8] = target: MAPK11 (human) (UniProt Q15759)
[9] = target: PHKG1 (human) (UniProt Q16816)
[10] = system: AKT1 (human), P31749 [S473D]
[11] = target: MAPK10 (human) (UniProt P53779); conditions: compound 0.1 µM
[12] = target: TBK1 (human) (UniProt Q9UHD2)
[13] = target: CSNK2A1 (human) (UniProt P68400)
[14] = system: AKT2 (human), P31751 [S474D]
[15] = target: PKN2 (human) (UniProt Q16513)
[16] = target: SYK (human) (UniProt P43405)
[17] = target: INSRR (human) (UniProt P14616)
[18] = system: PAK2 (human), Q13177 [T402E]; conditions: compound 0.1 µM
[19] = target: DYRK3 (human) (UniProt O43781)
[20] = target: MAP3K9 (human) (UniProt P80192)
[21] = target: PIM2 (human) (UniProt Q9P1W9)
[22] = target: MKNK1 (human) (UniProt Q9BUB5)
[23] = target: NEK2 (human) (UniProt P51955)
[24] = target: GSK3B (human) (UniProt P49841)
[25] = target: MAPK13 (human) (UniProt O15264)
[26] = system: RPS6KB1 (human), P23443 [T412E]
[27] = system: LCK (mouse); conditions: accession and sequence are those of the human protein
[28] = target: MYLK (human) (UniProt Q15746)
[29] = target: MARK1 (human) (UniProt Q9P0L2); conditions: compound 0.1 µM
[30] = system: ROCK2 (rat); conditions: accession and sequence are those of the human protein
[31] = target: IRAK4 (human) (UniProt Q9NWZ3)
[32] = target: EPHA2 (human) (UniProt P29317)
[33] = target: PIM3 (human) (UniProt Q86V86)
[34] = target: SRPK1 (human) (UniProt Q96SB4)
[35] = target: MAP2K1 (human) (UniProt Q02750)
[36] = target: EPHB1 (human) (UniProt P54762); conditions: compound 0.1 µM

Sequence of IRAK4 (human) (Q9NWZ3 whole entry, looked up): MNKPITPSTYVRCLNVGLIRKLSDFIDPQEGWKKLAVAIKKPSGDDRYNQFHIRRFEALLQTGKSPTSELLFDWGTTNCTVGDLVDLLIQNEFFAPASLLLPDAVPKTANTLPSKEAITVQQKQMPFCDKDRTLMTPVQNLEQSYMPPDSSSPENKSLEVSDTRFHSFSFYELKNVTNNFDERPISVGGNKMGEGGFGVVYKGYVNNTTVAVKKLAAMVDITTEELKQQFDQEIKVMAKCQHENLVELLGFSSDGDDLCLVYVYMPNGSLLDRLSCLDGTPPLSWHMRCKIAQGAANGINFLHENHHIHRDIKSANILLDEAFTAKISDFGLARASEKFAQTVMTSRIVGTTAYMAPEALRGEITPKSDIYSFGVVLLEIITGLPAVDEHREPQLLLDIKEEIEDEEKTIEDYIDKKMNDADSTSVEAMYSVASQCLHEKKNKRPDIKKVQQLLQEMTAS
Sequence of PKN2 (human) (Q16513 whole entry, looked up): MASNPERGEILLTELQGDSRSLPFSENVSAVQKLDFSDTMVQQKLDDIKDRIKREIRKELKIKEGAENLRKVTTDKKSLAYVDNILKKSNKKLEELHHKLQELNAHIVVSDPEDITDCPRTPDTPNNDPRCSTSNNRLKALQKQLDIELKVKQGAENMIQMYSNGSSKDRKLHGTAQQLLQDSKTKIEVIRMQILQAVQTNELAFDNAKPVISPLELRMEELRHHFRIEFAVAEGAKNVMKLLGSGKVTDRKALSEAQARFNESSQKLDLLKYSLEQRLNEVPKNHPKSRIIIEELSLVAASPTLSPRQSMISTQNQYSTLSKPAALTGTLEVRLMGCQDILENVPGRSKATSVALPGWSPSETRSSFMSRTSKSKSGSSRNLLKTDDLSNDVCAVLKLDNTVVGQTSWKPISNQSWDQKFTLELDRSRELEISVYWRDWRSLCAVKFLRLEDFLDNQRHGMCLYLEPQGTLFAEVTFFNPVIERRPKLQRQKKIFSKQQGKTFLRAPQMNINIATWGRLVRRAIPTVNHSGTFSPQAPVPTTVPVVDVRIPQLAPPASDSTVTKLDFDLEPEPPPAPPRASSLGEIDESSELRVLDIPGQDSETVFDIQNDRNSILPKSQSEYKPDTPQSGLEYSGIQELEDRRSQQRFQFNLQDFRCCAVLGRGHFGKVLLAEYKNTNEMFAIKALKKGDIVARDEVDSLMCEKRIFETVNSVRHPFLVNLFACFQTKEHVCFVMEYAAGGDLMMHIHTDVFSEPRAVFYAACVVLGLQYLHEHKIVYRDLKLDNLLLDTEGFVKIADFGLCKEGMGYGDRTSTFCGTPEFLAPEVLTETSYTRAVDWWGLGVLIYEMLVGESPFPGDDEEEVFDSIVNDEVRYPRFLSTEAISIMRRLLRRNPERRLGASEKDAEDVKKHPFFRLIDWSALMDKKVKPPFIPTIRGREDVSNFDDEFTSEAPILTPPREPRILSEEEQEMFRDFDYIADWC
Sequence of MKNK1 (human) (Q9BUB5 whole entry, looked up): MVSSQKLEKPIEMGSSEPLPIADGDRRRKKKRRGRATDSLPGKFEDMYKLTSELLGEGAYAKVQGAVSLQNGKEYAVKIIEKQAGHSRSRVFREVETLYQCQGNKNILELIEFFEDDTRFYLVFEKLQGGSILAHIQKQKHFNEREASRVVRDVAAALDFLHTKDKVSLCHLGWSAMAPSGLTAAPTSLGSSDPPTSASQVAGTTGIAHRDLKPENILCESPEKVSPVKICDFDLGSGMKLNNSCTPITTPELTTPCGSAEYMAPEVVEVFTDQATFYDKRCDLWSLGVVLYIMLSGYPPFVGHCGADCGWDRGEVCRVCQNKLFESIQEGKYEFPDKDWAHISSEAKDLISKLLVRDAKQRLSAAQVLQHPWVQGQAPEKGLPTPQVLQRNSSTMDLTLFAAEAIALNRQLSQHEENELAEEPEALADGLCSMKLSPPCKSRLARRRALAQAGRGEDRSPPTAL
Sequence of AKT1 (human), P31749 [S473D] (P31749 whole entry S473D, looked up): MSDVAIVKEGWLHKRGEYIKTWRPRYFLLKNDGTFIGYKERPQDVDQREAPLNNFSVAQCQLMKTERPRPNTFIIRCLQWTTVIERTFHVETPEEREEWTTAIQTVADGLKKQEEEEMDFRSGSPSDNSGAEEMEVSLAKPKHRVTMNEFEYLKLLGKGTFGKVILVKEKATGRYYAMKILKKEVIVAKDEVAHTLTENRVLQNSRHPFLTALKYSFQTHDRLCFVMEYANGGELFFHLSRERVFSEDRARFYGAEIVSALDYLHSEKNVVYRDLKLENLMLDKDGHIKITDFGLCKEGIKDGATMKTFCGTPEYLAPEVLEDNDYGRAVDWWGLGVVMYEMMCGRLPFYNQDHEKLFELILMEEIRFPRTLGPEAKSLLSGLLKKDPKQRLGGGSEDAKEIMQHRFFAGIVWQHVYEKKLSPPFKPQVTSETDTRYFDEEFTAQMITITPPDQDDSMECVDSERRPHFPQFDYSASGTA
Sequence of DYRK3 (human) (O43781 whole entry, looked up): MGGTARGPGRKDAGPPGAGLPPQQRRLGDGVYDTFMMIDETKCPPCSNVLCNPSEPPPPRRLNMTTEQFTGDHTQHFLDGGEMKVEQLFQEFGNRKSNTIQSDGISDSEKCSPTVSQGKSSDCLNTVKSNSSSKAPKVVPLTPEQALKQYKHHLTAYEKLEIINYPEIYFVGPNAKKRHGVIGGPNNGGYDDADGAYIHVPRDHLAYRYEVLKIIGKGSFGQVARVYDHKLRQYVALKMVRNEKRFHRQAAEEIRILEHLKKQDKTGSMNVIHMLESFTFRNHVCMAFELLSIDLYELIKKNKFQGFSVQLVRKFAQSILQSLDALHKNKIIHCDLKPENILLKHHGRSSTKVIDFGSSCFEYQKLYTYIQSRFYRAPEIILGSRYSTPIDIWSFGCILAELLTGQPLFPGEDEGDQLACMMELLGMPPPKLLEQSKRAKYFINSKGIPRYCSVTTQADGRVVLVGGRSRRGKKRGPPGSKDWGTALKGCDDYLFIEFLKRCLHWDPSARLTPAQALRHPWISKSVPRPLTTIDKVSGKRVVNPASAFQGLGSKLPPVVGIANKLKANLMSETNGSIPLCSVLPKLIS
Sequence of TTK (human) (P33981 whole entry, looked up): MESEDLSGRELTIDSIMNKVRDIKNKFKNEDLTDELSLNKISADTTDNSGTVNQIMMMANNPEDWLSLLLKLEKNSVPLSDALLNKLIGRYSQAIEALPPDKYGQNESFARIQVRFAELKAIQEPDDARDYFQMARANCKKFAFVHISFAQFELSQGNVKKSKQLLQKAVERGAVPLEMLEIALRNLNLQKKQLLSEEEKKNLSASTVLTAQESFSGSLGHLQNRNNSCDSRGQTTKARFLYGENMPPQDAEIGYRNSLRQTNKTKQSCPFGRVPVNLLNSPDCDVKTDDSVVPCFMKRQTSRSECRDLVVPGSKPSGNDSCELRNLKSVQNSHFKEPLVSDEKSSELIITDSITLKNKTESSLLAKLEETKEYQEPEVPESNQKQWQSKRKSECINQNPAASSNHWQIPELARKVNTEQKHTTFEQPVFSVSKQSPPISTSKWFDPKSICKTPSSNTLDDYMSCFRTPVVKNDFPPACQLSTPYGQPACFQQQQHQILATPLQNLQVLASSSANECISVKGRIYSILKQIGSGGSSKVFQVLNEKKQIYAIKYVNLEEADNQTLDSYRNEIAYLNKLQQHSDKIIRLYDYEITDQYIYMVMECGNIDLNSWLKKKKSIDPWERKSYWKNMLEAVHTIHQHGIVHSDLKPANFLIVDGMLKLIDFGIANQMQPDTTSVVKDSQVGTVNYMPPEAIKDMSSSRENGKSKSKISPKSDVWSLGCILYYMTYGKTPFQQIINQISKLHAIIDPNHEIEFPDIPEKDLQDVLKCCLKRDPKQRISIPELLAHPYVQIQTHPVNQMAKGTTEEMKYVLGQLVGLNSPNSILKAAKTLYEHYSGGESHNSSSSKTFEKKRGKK
Sequence of MAP3K9 (human) (P80192 whole entry, looked up): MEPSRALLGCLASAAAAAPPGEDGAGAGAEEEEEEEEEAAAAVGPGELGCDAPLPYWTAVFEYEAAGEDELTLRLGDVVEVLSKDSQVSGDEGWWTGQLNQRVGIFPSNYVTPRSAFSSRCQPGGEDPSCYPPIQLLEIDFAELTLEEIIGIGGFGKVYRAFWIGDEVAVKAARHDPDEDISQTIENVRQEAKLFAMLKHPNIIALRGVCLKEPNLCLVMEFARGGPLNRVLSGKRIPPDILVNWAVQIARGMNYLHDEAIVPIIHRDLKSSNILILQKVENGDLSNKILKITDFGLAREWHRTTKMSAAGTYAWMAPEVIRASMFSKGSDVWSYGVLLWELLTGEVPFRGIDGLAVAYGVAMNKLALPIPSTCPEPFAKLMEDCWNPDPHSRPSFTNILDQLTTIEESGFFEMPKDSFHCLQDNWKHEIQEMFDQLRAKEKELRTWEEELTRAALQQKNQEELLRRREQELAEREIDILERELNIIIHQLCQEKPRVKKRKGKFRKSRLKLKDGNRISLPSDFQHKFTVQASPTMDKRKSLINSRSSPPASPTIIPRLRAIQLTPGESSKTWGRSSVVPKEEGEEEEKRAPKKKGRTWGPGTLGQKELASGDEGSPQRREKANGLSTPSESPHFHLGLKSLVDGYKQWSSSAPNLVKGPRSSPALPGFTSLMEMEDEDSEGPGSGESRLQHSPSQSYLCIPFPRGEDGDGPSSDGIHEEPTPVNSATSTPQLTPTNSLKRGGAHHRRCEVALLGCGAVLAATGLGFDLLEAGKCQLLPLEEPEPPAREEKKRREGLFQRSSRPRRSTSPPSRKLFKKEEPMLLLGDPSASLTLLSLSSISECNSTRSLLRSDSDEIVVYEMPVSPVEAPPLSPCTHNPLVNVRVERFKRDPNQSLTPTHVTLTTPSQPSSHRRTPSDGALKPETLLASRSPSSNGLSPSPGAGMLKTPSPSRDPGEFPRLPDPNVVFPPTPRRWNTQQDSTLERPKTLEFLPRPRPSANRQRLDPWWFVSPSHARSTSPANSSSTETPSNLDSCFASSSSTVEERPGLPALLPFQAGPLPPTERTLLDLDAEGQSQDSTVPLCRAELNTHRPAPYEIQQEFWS

O=C(O)c1ccc(-c2c[nH]c3ncc(-c4ccccc4)cc23)cc1C1CCCC1 gave a residual activity ([1]; compound 0.1 µM) of 99%, a residual activity ([1]; compound 1.0 µM) of 77% and a residual activity ([1]; compound 10.0 µM) of 27%. The residual activity ([2]; compound 0.1 µM) was 86%, the residual activity ([2]; compound 1.0 µM) was 89% and the residual activity ([3]; compound 0.1 µM) was 111%. The residual activity ([3]; compound 1.0 µM) was 100%, the residual activity ([3]; compound 10.0 µM) was 68% and the residual activity ([4]; compound 0.1 µM) was 104%. It also gave a residual activity ([4]; compound 10.0 µM) of 107%, a residual activity ([5]; compound 0.1 µM) of 89% and a residual activity ([5]; compound 1.0 µM) of 79%. For the same molecule, the residual activity ([5]; compound 10.0 µM) was 46%, the residual activity [6] was 88% and the residual activity [7] was 97%. For the same molecule, the residual activity ([8]; compound 0.1 µM) was 109%, the residual activity ([8]; compound 1.0 µM) was 112% and the residual activity ([8]; compound 10.0 µM) was 71%. The residual activity ([9]; compound 0.1 µM) was 34%, the residual activity ([9]; compound 1.0 µM) was 3% and the residual activity ([9]; compound 10.0 µM) was 0%. It also gave a residual activity ([10]; compound 0.1 µM) of 104%, a residual activity ([10]; compound 1.0 µM) of 72% and a residual activity ([10]; compound 10.0 µM) of 57%. The residual activity [11] was 73%, the residual activity ([12]; compound 0.1 µM) was 86% and the residual activity ([12]; compound 1.0 µM) was 70%. It also gave a residual activity ([12]; compound 10.0 µM) of 27%, a residual activity ([13]; compound 0.1 µM) of 96% and a residual activity ([13]; compound 10.0 µM) of 46%. For the same molecule, the residual activity ([14]; compound 0.1 µM) was 86%, the residual activity ([14]; compound 1.0 µM) was 98% and the residual activity ([14]; compound 10.0 µM) was 74%. The residual activity ([15]; compound 0.1 µM) was 76%, the residual activity ([15]; compound 1.0 µM) was 31% and the residual activity ([15]; compound 10.0 µM) was 5%. It also gave a residual activity ([16]; compound 0.1 µM) of 99%, a residual activity ([16]; compound 1.0 µM) of 66% and a residual activity ([16]; compound 10.0 µM) of 12%. It also gave a residual activity ([17]; compound 0.1 µM) of 98%, a residual activity ([17]; compound 1.0 µM) of 58% and a residual activity ([17]; compound 10.0 µM) of 26%. The residual activity [18] was 99%, the residual activity ([19]; compound 0.1 µM) was 79% and the residual activity ([19]; compound 1.0 µM) was 57%. It also gave a residual activity ([19]; compound 10.0 µM) of 17%, a residual activity ([20]; compound 0.1 µM) of 87% and a residual activity ([20]; compound 1.0 µM) of 38%. For the same molecule, the residual activity ([20]; compound 10.0 µM) was 7%, the residual activity ([21]; compound 0.1 µM) was 104% and the residual activity ([21]; compound 1.0 µM) was 92%. For the same molecule, the residual activity ([21]; compound 10.0 µM) was 75%, the residual activity ([22]; compound 0.1 µM) was 28% and the residual activity ([22]; compound 1.0 µM) was 3%. It also gave a residual activity ([22]; compound 10.0 µM) of 3%, a residual activity ([23]; compound 0.1 µM) of 114% and a residual activity ([23]; compound 1.0 µM) of 60%. It also gave a residual activity ([23]; compound 10.0 µM) of 27%, a residual activity ([24]; compound 0.1 µM) of 94% and a residual activity ([24]; compound 1.0 µM) of 78%. It also gave a residual activity ([24]; compound 10.0 µM) of 23%, a residual activity ([25]; compound 0.1 µM) of 118% and a residual activity ([25]; compound 1.0 µM) of 87%. For the same molecule, the residual activity ([25]; compound 10.0 µM) was 62%, the residual activity ([26]; compound 0.1 µM) was 100% and the residual activity ([26]; compound 1.0 µM) was 74%. It also gave a residual activity ([26]; compound 10.0 µM) of 24%, a residual activity ([27]; compound 0.1 µM) of 109% and a residual activity ([27]; compound 1.0 µM) of 79%. The residual activity ([28]; compound 0.1 µM) was 87%, the residual activity ([28]; compound 1.0 µM) was 102% and the residual activity ([28]; compound 10.0 µM) was 87%. For the same molecule, the residual activity [29] was 97%, the residual activity ([30]; compound 0.1 µM) was 84% and the residual activity ([30]; compound 1.0 µM) was 59%. It also gave a residual activity ([30]; compound 10.0 µM) of 33%, a residual activity ([31]; compound 0.1 µM) of 20% and a residual activity ([31]; compound 1.0 µM) of 12%. For the same molecule, the residual activity ([31]; compound 10.0 µM) was 12%, the residual activity ([32]; compound 0.1 µM) was 92% and the residual activity ([32]; compound 1.0 µM) was 97%. The residual activity ([32]; compound 10.0 µM) was 85%, the residual activity ([33]; compound 0.1 µM) was 90% and the residual activity ([33]; compound 1.0 µM) was 86%. It also gave a residual activity ([33]; compound 10.0 µM) of 45%, a residual activity ([34]; compound 0.1 µM) of 82% and a residual activity ([34]; compound 1.0 µM) of 104%. It also gave a residual activity ([34]; compound 10.0 µM) of 50%, a residual activity ([35]; compound 0.1 µM) of 105% and a residual activity ([35]; compound 1.0 µM) of 34%. For the same molecule, the residual activity ([35]; compound 10.0 µM) was 12% and the residual activity [36] was 94%.
